By inhibition is commonly meant the relative decrease from the control value, in per cent. The term Ki denotes a measure of affinity in units of concentration, obtained from inhibition or displacement.

The source of these data is ChEMBL document CHEMBL2062514 (J Med Chem, 2012).

Molecules are shown by their SMILES.

One assay deals with Adenosine receptor A2a (Homo sapiens, UniProt P29274). As to the kind of experiment: Displacement of [3H]CGS21680 from human recombinant adenosine A2A receptor expressed in HEK293 cells at 10 uM after 60 mins by liquid scintillation counting. The class given is cell-based. A general note: Loss of bound radioactivity is the signal in a displacement assay; it reports binding, not function.

The next assay has as its target T1, Adenosine receptor A3 (Mus musculus, UniProt Q61618).
T1 sequence (Q61618 whole entry): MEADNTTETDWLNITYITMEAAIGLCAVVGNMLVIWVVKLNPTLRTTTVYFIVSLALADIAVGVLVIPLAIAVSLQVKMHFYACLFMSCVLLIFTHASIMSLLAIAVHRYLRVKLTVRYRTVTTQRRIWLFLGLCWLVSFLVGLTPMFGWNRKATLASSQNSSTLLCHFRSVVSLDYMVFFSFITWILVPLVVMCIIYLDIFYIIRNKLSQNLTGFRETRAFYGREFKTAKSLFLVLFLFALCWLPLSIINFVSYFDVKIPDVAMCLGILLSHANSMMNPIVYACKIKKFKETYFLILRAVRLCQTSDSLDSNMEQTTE
As to the kind of experiment: Displacement of [125I]I-AB-MECA from mouse adenosine A3 receptor expressed in HEK293 cells after 60 mins by liquid scintillation counting.

Assay [1] deals with T2, Adenosine receptor A1 (Homo sapiens) (UniProt P30542).
T2 sequence (whole entry): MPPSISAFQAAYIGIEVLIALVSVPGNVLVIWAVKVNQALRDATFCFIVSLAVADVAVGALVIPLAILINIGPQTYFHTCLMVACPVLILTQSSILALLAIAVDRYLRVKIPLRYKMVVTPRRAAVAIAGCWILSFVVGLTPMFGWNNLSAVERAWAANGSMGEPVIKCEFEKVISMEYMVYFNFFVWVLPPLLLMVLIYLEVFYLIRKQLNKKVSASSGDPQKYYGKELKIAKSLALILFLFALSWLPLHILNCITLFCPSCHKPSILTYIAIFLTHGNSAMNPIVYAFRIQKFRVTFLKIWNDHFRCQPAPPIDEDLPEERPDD
As to the kind of experiment: Displacement of [3H]R-PIA from human recombinant adenosine A1 receptor expressed in CHO cells at 10 uM after 60 mins by liquid scintillation counting. The class given is cell-based.

Assay [2] addresses T3, Adenosine receptor A1 (Mus musculus) (UniProt Q60612).
T3 sequence (whole entry): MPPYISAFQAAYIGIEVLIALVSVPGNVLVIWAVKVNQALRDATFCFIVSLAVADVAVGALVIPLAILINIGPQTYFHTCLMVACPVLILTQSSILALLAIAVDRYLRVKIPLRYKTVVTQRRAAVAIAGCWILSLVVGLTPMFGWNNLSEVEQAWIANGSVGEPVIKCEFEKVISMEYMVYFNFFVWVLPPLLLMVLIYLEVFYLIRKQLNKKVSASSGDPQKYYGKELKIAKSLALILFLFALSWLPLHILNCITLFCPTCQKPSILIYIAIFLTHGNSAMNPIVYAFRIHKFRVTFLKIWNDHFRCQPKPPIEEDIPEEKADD
As to the kind of experiment: Displacement of from mouse adenosine A1 receptor expressed in HEK293 cells at 10 uM after 60 mins by liquid scintillation counting. More on the design: reference not given here.

The target in assay [3] is T4, Adenosine receptor A3 (Homo sapiens) (UniProt P0DMS8).
T4 sequence (whole entry): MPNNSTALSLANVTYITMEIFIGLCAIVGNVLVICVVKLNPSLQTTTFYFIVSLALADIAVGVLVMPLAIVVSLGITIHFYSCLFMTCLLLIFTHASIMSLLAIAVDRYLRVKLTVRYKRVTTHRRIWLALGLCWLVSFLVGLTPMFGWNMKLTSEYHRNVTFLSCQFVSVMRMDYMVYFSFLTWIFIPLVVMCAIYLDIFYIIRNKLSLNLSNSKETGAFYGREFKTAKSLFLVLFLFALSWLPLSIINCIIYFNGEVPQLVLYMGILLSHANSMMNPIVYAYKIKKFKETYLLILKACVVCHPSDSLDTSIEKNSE
The assay is described as follows: Agonist activity at human recombinant adenosine A3 receptor expressed in CHO cells assessed as inhibition of forskolin-stimulated cAMP production at 10 uM incubated for 30 mins prior to forskolin-stimulation measured after 15 mins by enzyme immunoassay relative to NECA. The class given is functional, cell-based. Background: Cyclic AMP is a second messenger, typically raised through Gs and lowered through Gi signalling.

Assay [4] is described as follows: Selectivity ratio of Ki for mouse adenosine A3 receptor to Ki for human recombinant adenosine A3 receptor.
For assay [5], the target named is Adenosine receptor A2a (Mus musculus) (UniProt Q60613). As to the kind of experiment: Displacement of [3H]CGS21680 from mouse adenosine A2A receptor expressed in HEK293 cells at 10 uM after 60 mins by liquid scintillation counting.
In assay [6] the target is T5, Adenosine receptor A2b (Homo sapiens) (UniProt P29275).
T5 sequence (whole entry): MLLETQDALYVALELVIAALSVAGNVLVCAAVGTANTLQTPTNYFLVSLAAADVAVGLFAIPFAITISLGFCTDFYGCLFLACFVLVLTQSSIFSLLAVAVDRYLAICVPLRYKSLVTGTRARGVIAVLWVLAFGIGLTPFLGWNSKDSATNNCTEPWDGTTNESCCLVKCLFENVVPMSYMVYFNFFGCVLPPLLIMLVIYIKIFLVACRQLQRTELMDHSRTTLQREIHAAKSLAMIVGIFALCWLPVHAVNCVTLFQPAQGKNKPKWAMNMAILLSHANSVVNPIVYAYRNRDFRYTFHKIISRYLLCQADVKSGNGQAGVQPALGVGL
The assay is described as follows: Agonist activity at human adenosine A2B receptor by cAMP accumulation assay relative to NECA. The class given is functional.

Sequence of Adenosine receptor A2a (P29274 whole entry): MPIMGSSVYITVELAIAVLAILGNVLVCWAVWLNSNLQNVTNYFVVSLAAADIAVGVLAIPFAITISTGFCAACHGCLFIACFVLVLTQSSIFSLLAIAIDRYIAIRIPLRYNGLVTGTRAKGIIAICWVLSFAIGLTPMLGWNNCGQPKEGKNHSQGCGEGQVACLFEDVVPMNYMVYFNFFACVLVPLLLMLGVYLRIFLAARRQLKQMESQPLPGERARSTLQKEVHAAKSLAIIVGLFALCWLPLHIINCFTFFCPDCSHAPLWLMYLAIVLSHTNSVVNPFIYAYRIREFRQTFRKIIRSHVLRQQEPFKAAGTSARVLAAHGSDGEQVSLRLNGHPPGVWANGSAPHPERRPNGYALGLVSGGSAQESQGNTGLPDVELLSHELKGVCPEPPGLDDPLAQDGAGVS
Sequence of Adenosine receptor A2a (Mus musculus) (Q60613 whole entry): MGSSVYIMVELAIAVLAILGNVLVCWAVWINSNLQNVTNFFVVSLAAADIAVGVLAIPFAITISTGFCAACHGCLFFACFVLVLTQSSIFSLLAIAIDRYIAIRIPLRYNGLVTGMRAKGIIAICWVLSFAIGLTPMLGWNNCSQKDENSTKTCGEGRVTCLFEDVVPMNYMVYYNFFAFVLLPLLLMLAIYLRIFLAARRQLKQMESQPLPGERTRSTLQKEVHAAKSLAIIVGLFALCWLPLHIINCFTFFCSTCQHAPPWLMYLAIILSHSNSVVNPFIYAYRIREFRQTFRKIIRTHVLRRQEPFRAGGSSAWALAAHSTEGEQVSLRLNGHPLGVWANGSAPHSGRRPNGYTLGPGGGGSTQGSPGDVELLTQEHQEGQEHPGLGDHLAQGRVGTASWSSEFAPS

In the case of `CNC(=O)[C@@]12C[C@@H]1[C@@H](n1cnc3c(NC)nc(C#Cc4ccc(F)cc4)nc31)[C@H](O)[C@@H]2O`, the inhibition on Adenosine receptor A2a turned out to be 19%; in assay [1] it was 21%; in assay [2], 29%; in assay [5], 0%. This molecule also showed an inhibition constant Ki on Adenosine receptor A3 of 37.7 nM. Also, the Efficacy in assay [3] is 80.3%. In addition, the Ratio Ki in assay [4] is 70.

As to `CNC(=O)[C@@]12C[C@@H]1[C@@H](n1cnc3c(NC)nc(C#Cc4ccccc4Cl)nc31)[C@H](O)[C@@H]2O`, the inhibition at Adenosine receptor A2a worked out at 30%; in assay [1], 27%; in assay [2], 55%; in assay [5], 2%. This molecule came in with a Ki at Adenosine receptor A3 of 37.2 nM. The Efficacy in assay [3] is 84.2%. For the same molecule, the Ratio Ki in assay [4] turned out to be 70.

In the case of `CNC(=O)[C@@]12C[C@@H]1[C@@H](n1cnc3c(NC)nc(C#Cc4ccc(Cl)cc4)nc31)[C@H](O)[C@@H]2O`, the results for the inhibition (on Adenosine receptor A2a; in assay [1]) were 30% and 14%, respectively. Further, the Efficacy in assay [3] was 97.4%.

Turning to `CNC(=O)[C@@]12C[C@@H]1[C@@H](n1cnc3c(NC)nc(C#Cc4cccc(F)c4)nc31)[C@H](O)[C@@H]2O`, the figures for the inhibition (at Adenosine receptor A2a; in assay [1]) were 10% and 12%, respectively. Moreover, the Efficacy in assay [3] was 95.8%.

As for `CNC(=O)[C@@]12C[C@@H]1[C@@H](n1cnc3c(NC)nc(C#Cc4ccc(Br)cc4)nc31)[C@H](O)[C@@H]2O`, the inhibition was found to be 26% on Adenosine receptor A2a and 13% in assay [1]. For the same molecule, the Efficacy in assay [3] was 97.5%.

`CNC(=O)[C@@]12C[C@@H]1[C@@H](n1cnc3c(NCc4cccc(Cl)c4)nc(C#Cc4ccc(F)cc4)nc31)[C@H](O)[C@@H]2O`: the inhibition on Adenosine receptor A2a is 42%; in assay [1], 20%; in assay [2], 65%; in assay [5], 7%. In addition, the Ki on Adenosine receptor A3 was determined as 2.38 nM. For the same molecule, the Efficacy in assay [6] was determined as 20%; in assay [3] it was 102%.

`CNC(=O)[C@@]12C[C@@H]1[C@@H](n1cnc3c(NC)nc(C#Cc4ccccc4)nc31)[C@H](O)[C@@H]2O`: the values for the inhibition (at Adenosine receptor A2a; in assay [1]) were 14% and 13%, respectively.

With `CNC(=O)[C@@]12C[C@@H]1[C@@H](n1cnc3c(NCc4cccc(Cl)c4)nc(C#Cc4cccc(C(=O)O)c4)nc31)[C@H](O)[C@@H]2O`, the inhibition on Adenosine receptor A2a is 38%; in assay [1], 6%; in assay [2], 18%; in assay [5] it was 22%. The molecule also yielded a Ki at Adenosine receptor A3 of 3.66 nM. Besides, the Efficacy in assay [3] amounted to 86.7%.

As to `CNC(=O)[C@@]12C[C@@H]1[C@@H](n1cnc3c(NC)nc(C#Cc4ccccn4)nc31)[C@H](O)[C@@H]2O`, the figures for the inhibition (at Adenosine receptor A2a; in assay [1]) were 13% and 11%, respectively.

Regarding `CNC(=O)[C@@]12C[C@@H]1[C@@H](n1cnc3c(NC)nc(C#Cc4cccc5ccccc45)nc31)[C@H](O)[C@@H]2O`, the inhibition at Adenosine receptor A2a stood at 34%; in assay [1], 25%. Besides, the Efficacy in assay [3] was found to be 94.6%.

`CNC(=O)[C@@]12C[C@@H]1[C@@H](n1cnc3c(NC)nc(C#Cc4ccccc4F)nc31)[C@H](O)[C@@H]2O`: the inhibition at Adenosine receptor A2a stood at 17%; in assay [1], 21%. Moreover, the Efficacy in assay [3] is 97.7%.

Take `CNC(=O)[C@@]12C[C@@H]1[C@@H](n1cnc3c(NC)nc(C#Cc4ccc(C(C)(C)C)cc4)nc31)[C@H](O)[C@@H]2O`: the figures for the inhibition (on Adenosine receptor A2a; in assay [1]) were 7% and 23%, respectively. Besides, in assay [3], the Efficacy came to 78.4%.

Regarding `CNC(=O)[C@@]12C[C@@H]1[C@@H](n1cnc3c(NC)nc(C#Cc4cccc(Cl)c4)nc31)[C@H](O)[C@@H]2O`, the inhibition in assay [1] turned out to be 10%. In addition, the Efficacy in assay [6] came to 20%; in assay [3], 90.9%.

Turning to `CNC(=O)[C@@]12C[C@@H]1[C@@H](n1cnc3c(NC)nc(C#Cc4ccc(-c5ccccc5)cc4)nc31)[C@H](O)[C@@H]2O`, the inhibition stood at 29% on Adenosine receptor A2a and 21% in assay [1]. For the same molecule, the Efficacy in assay [3] was 110%.

On to `CNC(=O)[C@@]12C[C@@H]1[C@@H](n1cnc3c(NC)nc(C#Cc4ccc(F)c(F)c4)nc31)[C@H](O)[C@@H]2O`, for which the inhibition (at Adenosine receptor A2a; in assay [1]) was 6% in each case. The Efficacy in assay [3] worked out at 108%.

Regarding `CNC(=O)[C@@]12C[C@@H]1[C@@H](n1cnc3c(NCc4cccc(Cl)c4)nc(C#Cc4ccccc4Cl)nc31)[C@H](O)[C@@H]2O`, the inhibition is 52% at Adenosine receptor A2a, 19% in assay [1], 51% in assay [2] and 19% in assay [5]. Affinity on Adenosine receptor A3 was put at a Ki of 2.64 nM. Also, in assay [3], the Efficacy is 103%.

Turning to `CNC(=O)[C@@]12C[C@@H]1[C@@H](n1cnc3c(NCc4cccc(I)c4)ncnc31)[C@H](O)[C@@H]2O`, the Efficacy in assay [3] turned out to be 100%.

On to `CNC(=O)[C@@]12C[C@@H]1[C@@H](n1cnc3c(NCc4cccc(Cl)c4)nc(C#Cc4ccccc4)nc31)[C@H](O)[C@@H]2O`, for which the inhibition on Adenosine receptor A2a came out at 27%; in assay [1], 20%; in assay [2], 50%; in assay [5], 2%. In assay [3], the Efficacy was 101%.

As to `CNC(=O)[C@@]12C[C@@H]1[C@@H](n1cnc3c(NC)nc(C#Cc4cccc(N)c4)nc31)[C@H](O)[C@@H]2O`, the inhibition is 19% at Adenosine receptor A2a and 10% in assay [1]. Besides, in assay [3], the Efficacy was found to be 109%.

With `CCc1ccc(C#Cc2nc(NC)c3ncn([C@H]4[C@H](O)[C@H](O)[C@]5(C(=O)NC)C[C@H]45)c3n2)cc1`, the inhibition at Adenosine receptor A2a is 38%; in assay [1], 13%. In assay [3], the Efficacy worked out at 110%.

For the molecule `CNC(=O)[C@@]12C[C@@H]1[C@@H](n1cnc3c(NC)nc(C#Cc4cc5ccccc5c5ccccc45)nc31)[C@H](O)[C@@H]2O`, the results for the inhibition (on Adenosine receptor A2a; in assay [1]) were 52% and 15%, respectively. In assay [3], the Efficacy was 108%.

As for `CNC(=O)[C@@]12C[C@@H]1[C@@H](n1cnc3c(NCc4cccc(Cl)c4)nc(C#Cc4ccc(F)c(F)c4)nc31)[C@H](O)[C@@H]2O` (single isomer, unassigned), the inhibition turned out to be 41% on Adenosine receptor A2a, 6% in assay [1], 14% in assay [2] and 27% in assay [5]. The molecule also showed an Efficacy in assay [6] of 20%.

Turning to `CNC(=O)[C@@]12C[C@@H]1[C@@H](n1cnc3c(NC)nc(C#Cc4cc(F)cc(F)c4)nc31)[C@H](O)[C@@H]2O`, the inhibition at Adenosine receptor A2a is 47%; in assay [1], 8%. Moreover, the Efficacy in assay [3] worked out at 99.6%.
